# Marks after values point to notes of the source that are not given here.
# B1: BDNF: Brain derived nerve growth factor, a specific growth factor for motor neurones; reference compound (protein, UniProt P23560 19-247, looked up)
# Neurotrophic factor BDNF …: APMKEANIRGQGGLAYPGVRTHGTLESVNGPKAGSRGLTSLADTFEHVIEELLDEDQKVRPNEENNKDADLYTSRVMLSSQVPLEPPLLFLLEEYKNYLDAANMSMRVRRHSDPARRGELSVCDSISEWVTAADKKTAVDMSGGTVTVLEKVPVSKGQLKQYFYETKCNPMGYTKEGCRGIDKRHWNSQCRTTQSYVRALTMDSKKRIGWRFIRIDTSCVCTLTIKRGR
# Legend:
# Type in all cases: cell-based
# [1] = system: m-PGES1 mRNA; assay: m-PGES1 mRNA in human PBMC with and without TNF-α, quantitative RT-PCR; conditions: without TNF-α
# Method: (§1) Whole blood was collected from donors in EDTA-supplemented pouches at the Etablissement Français du Sang (Brest, France). The PBMC were isolated then from whole blood under sterile conditions within 36 hours after collection. Gradient density centrifugation was carried out on Ficoll (Eurobio). After washing in RPMI 1640 medium (Eurobio), cells were suspended in RPMI 1640 medium supplemented with 10% heat-inactivated fetal calf serum (Eurobio), 2 mM glutamine (D. Dutscher), 100 U of penicillin/ml (D. Dutscher), and 100 μg of streptomycin/ml (D. Dutscher). Monocytes were selected by plastic adherence for 1 h and approximately 10^7 cells were plated in 6-well tissue culture plates (3 mL medium per well). All incubations were performed in a humidified incubator at 37° C. and 5% CO2. Cells were recovered and dispersed in 2 ml fresh incubation medium supplemented with either 7β-hydroxyEPIA, 7β-hydroxy-DHEA, or 7α-hydroxy-DHEA (in 20 μL ethanol) in the presence or absence of 0.01 μg/mL TNF-α (Sigma-Aldrich). Control incubations contained 20 μl ethanol but no steroid. Supernatants were collected after 4 h and 24 hours incubations for measurement of their PG contents and cells were used for subsequent RNA isolation. A single step extraction method using the Trizol Reagent (Invitrogen, Cergy-Pontoise, France) provided total RNA.
# (§2) cDNAs were synthesized from TURBO DNase I—treated RNA (Ambion, Huntingdon, UK) using the Superscript first strand synthesis system kit (Invitrogen). RT-PCR amplification mixtures (50 μL) contained 2.5× RealMaster Mix/20×SYBR solution (11.25 μL) (Eppendorf, Le Pecq, France) and 200 nM forward and reverse primers. Reactions were run on a RealPlex ep gradient S mastercycler (Eppendorf). The cycling conditions were 10 minutes at 95° C. and 45 cycles at 95° C., 55° C. and 68° C. for 15 seconds, 30 seconds and 30 seconds, respectively. Each assay included a standard curve of four serial dilution points of control cDNA. The HPRT1 housekeeping gene was used for quantification. All oligonucleotide primers (Table 2) were synthesized by Genecust/Distribio (Evry, France). The specificity of the amplified product was monitored by examining the melting curve of the product and confirmed by analysis on agarose gel electrophoresis.
# (§3) All assays were carried out in triplicate and results were plotted as mean±S.E.M. One-way analysis of variance was performed followed by Duncan's multiple range tests in order to compare the differences between groups. Differences were considered statistically significant when p<0.05.
# [2] = system: COX-2 mRNA; assay: COX-2 mRNA in human PBMC with and without TNF-α, quantitative RT-PCR; conditions: without TNF-α
# Method: as §1, §2, §3
# [3] = system: human PBMC; assay: PG levels (PGE2, PGD2, 15d-PGJ2) in culture medium of human PBMC cultured with and without TNF-α, EIA (Example 3); conditions: without TNF-α
# Method: as §1
# Commercially available EIA kits were used for the determination of PGE2 levels (Oxford Biomedical Research, UK) and 15d-PGJ2 levels (Assay designs, Euromedex, France) in culture media. Measurement of PGD2 levels was obtained using the prostaglandin D2-MOX EIA kit (Cayman Chemical, Euromedex). In this case, and prior to assay, the fresh samples were immediately treated with the MOX-HCl reagent, which converted PGD2 into PGD2-MOX, thus preventing any further chemical degradation.
# as §3
# [4] = system: rat spinal cord motor neurones; assay: Neurite growth of spinal cord motor neurones in primary culture (anti β-Tubulin, In Cell Analyzer)
# Method: Rat spinal motor neurones were prepared according to the method described by Martinou et al., 1992 (Martinou J C, Martinou I, Kato AC Cholinergic differentiation factor (CDF/LIF) promotes survival of isolated rat embryonic motoneurons in vitro. Neuron. 1992 April; 8(4):737-44). Briefly, pregnant female Wistar rats of 15 days gestation, were killed by cervical dislocation and the foetuses were removed from the uterus. Their spinal cords were removed and placed in ice-cold medium of Leibovitz (L15, Invitrogen, 11415-049) containing 1% of bovine serum albuminutes (BSA fatty acid free, Eurobio, Les Ulis, France, GXXBSA01-65). Meninges were carefully removed.
# The spinal motor neurones were dissociated by trypsinisation for 20 minutes at 37° C. (trypsin EDTA 10× Invitrogen 15400054) diluted in PBS without calcium and magnesium (Invitrogen 2007-03). The reaction was stopped by the addition of Dulbecco Modified Eagle's Media (DMEM, Invitrogen 21969-035) containing DNase I grade II (0.1 mg/ml Roche diagnostic 104159) and 10% foetal calf serum (FCS, Invitrogen 10270098). The suspension was then mechanically dissociated by 3 passages through a 10 ml pipette. Cells were then centrifuged at 580 g for 10 minutes at room temperature. The pellet of dissociated cells was re-suspended in L15 medium and the resulting suspension was enriched in motor neurones by centrifugation at 180×g for 10 minutes at room temperature on a layer of BSA solution (3.5%) in L15 medium. The supernatant was discarded and the pellet was re-suspended in L15 medium supplemented with DNase I (1%). Then the suspension was layered over a cushion of Optiprep (d: 1.06 g/ml; Abcys, Paris, France; 1030061) and centrifuged at 335×g for 15 minutes at room temperature. The upper phase, containing the purified motor neurones, was collected, re-suspended with L15 medium and centrifuged at 800×g for 10 minutes at room temperature. The cell pellet was finally resuspended in a defined culture medium consisting of neurobasal medium supplemented with 2% B27, 2 mM L-Glutamine and Penicillin 50 Ul/ml-Streptomycin 50 μg/ml. Viable cells were counted in a Neubauer cytometer using the trypan blue exclusion test (Sigma T8154) then plated at 30 000 cells/well in 96 well-plates (pre-coated with poly-1-lysine; Nunclon, Invitrogen P5899) and cultured at 37° C. in a humidified air (95%) CO2 (5%) atmosphere.
# The culture medium was changed into a defined culture medium after a 12 hours incubation period following the conditions described below:
# BDNF 50 ng/ml and 10 ng/ml (in 0.1% DMSO)
# After 6 hours, 12 hours and 24 hours of incubation with, cells were fixed for 5 minutes in an ethanol/acetic acid solution (95%/5%) at −20° C. and rinsed 3 times in PBS.
# Motor neurones and sensory neurones were labelled by monoclonal anti β-Tubulin antibody (Sigma T8660) diluted at 1:400 in incubation solution (PBS with 5% of FCS and 0.1% of saponin, Sigma S-7900). This antibody specifically labels neurone cell bodies and neurites.
# After 2 hours of incubation, the cells were washed in PBS and incubated with Alexa Fluor 488 goat anti mouse IgG (Molecular Probes A11001) diluted at 1:300 in incubation solution to reveal the 8-Tubulin III antibodies.
# Analysis of the total length of neurones labelled with anti β-Tubulin antibodies (neurones) were carried out using In Cell Analyzer 1000 3.2.Workstation software.
# The results were expressed in percentage compared to the vehicle. Comparison of groups was carried out using the unpaired T test.
molecule,measurement,setting,value
CC12CCC3C(C1CCC2=O)[C@@H](O)C=C1C[C@@H](O)CCC13C (stereo partly drawn) [7β-hydroxy-DHEA],"mPGES1 (mRNA), mRNA production relative to controls","[1]; 1 nM, 4 h",0.43 ± 0.057^b
same,"mPGES1 (mRNA), mRNA production relative to controls","[1]; 1 nM, 24 h",1.94 ± 0.422^a
same,"mPGES1 (mRNA), mRNA production relative to controls","[1]; 10 nM, 4 h",0.67 ± 0.071^b
same,"mPGES1 (mRNA), mRNA production relative to controls","[1]; 10 nM, 24 h",1.64 ± 0.338^a
same,"mPGES1 (mRNA), mRNA production relative to controls","[1]; 100 nM, 4 h",0.82 ± 0.085^b
same,"mPGES1 (mRNA), mRNA production relative to controls","[1]; 100 nM, 24 h",1.64 ± 0.322^a
same,"COX-2 (mRNA), mRNA production relative to controls","[2]; 1 nM, 4 h",1.20 ± 0.179
same,"COX-2 (mRNA), mRNA production relative to controls","[2]; 1 nM, 24 h",1.76 ± 0.672
same,"COX-2 (mRNA), mRNA production relative to controls","[2]; 10 nM, 4 h",1.33 ± 0.039
same,"COX-2 (mRNA), mRNA production relative to controls","[2]; 10 nM, 24 h",1.54 ± 0.630
same,"COX-2 (mRNA), mRNA production relative to controls","[2]; 100 nM, 4 h",5.09 ± 1.166^a
same,"COX-2 (mRNA), mRNA production relative to controls","[2]; 100 nM, 24 h",2.78 ± 0.580^a
same,15d-PGJ2,"[3]; 1 nM, 4 h",0.45 ± 0.016 ng/mL
same,PGD2,"[3]; 1 nM, 4 h",0.18 ± 0.002 ng/mL
same,PGE2,"[3]; 1 nM, 4 h",0.22 ± 0.003 ng/mL
same,15d-PGJ2,"[3]; 1 nM, 24 h",0.66 ± 0.013^a ng/mL
same,PGD2,"[3]; 1 nM, 24 h",0.21 ± 0.009^a ng/mL
same,PGE2,"[3]; 1 nM, 24 h",0.22 ± 0.003 ng/mL
same,15d-PGJ2,"[3]; 10 nM, 4 h",0.40 ± 0.014 ng/mL
same,PGD2,"[3]; 10 nM, 4 h",0.14 ± 0.001 ng/mL
same,PGE2,"[3]; 10 nM, 4 h",0.22 ± 0.013 ng/mL
same,15d-PGJ2,"[3]; 10 nM, 24 h",0.62 ± 0.008^a ng/mL
same,PGD2,"[3]; 10 nM, 24 h",0.24 ± 0.001^a ng/mL
same,PGE2,"[3]; 10 nM, 24 h",0.24 ± 0.002 ng/mL
same,15d-PGJ2,"[3]; 100 nM, 4 h",0.42 ± 0.030 ng/mL
same,PGD2,"[3]; 100 nM, 4 h",0.19 ± 0.008 ng/mL
same,PGE2,"[3]; 100 nM, 4 h",0.22 ± 0.002 ng/mL
same,15d-PGJ2,"[3]; 100 nM, 24 h",0.56 ± 0.020^a ng/mL
same,PGD2,"[3]; 100 nM, 24 h",0.34 ± 0.025^a ng/mL
same,PGE2,"[3]; 100 nM, 24 h",0.24 ± 0.004 ng/mL
B1,"Neurites length per field, % Vehicle","[4]; 10 ng/ml, 6 hours",193%
same,"Neurites length per field, Mean","[4]; 10 ng/ml, 6 hours",489.5 μm
same,"Neurites length per field, % Vehicle","[4]; 10 ng/ml, 12 hours",173%
same,"Neurites length per field, Mean","[4]; 10 ng/ml, 12 hours",731.3 μm
same,"Neurites length per field, % Vehicle","[4]; 10 ng/ml, 24 hours",170%
same,"Neurites length per field, Mean","[4]; 10 ng/ml, 24 hours",366.1 μm
same,"Neurites length per field, % Vehicle","[4]; 50 ng/ml, 6 hours",180%
same,"Neurites length per field, Mean","[4]; 50 ng/ml, 6 hours",457.2 μm
same,"Neurites length per field, % Vehicle","[4]; 50 ng/ml, 12 hours",152%
same,"Neurites length per field, Mean","[4]; 50 ng/ml, 12 hours",643.7 μm
same,"Neurites length per field, Mean","[4]; 50 ng/ml, 24 hours",293.6 μm

# From US20130023504A1, “Modulation of Prostaglandin/Cyclooxygenase Metabolic Pathways” (HUNTER-FLEMING LIMITED, priority 2006, published 2013)
